# Source: patent US20220288207A1, “PHOTO INDUCED CONTROL OF PROTEIN DESTRUCTION” (Beth Israel Deaconess Medical Center, Inc., priority 2019, published 2022)
# Entries after “also recorded” stand apart in the source; their conditions may differ.
# What was measured:
# C4-2 cells = assay: CCK-8 cell viability assay, C4-2 cells; type: cell-based
# Description: (§1) Human embryonic kidney 293T (HEK293T) cells and HEK293FT were maintained in Dulbecco's Modified Eagle's Medium (DMEM) containing 10% fetal bovine serum (FBS), 100 Units of penicillin and […] streptomycin. MM.1S, MT2, C4-2, NCI-H2228 and NCI-H3122 cells were cultured in RPMI1640 containing 10% fetal bovine serum (FBS), 100 Units of penicillin and 100 μg/ml streptomycin. 293FT^CRBN+/+, 293FT^CRBN+/+ , MM.1S^CRBN+/+ and MM.1S^CRBN−/− cells were provided Dr. William G. Kaelin (Dana-Farber Cancer Institute). For UVA irradiation, cells were pretreated with opto-PROTACs for 2-4 hours, and then subjected to UVA irradiation for indicated durations.
# (§2) Cell in 96-well plates were incubated with 10 ul/well of CCK-8 solution and incubated for 2 hours, followed by the measurement of optical density using a microplate reader with a 450 nm filter (O.D. 450).
# HEK293FT cells = assay: CCK-8 cell viability assay, HEK293FT cells; type: cell-based, Human
# Description: as §1, §2
# BRD2 and BRD3 = assay: In vivo ubiquitination assay of BRD2 and BRD3 by CRBN in HEK293T cells (Ni-NTA pull down); type: cell-based, Human
# Description: (§3) Denatured in vivo ubiquitination assays were performed as described in H. Inuzuka et al., Cell 150 (2012): 179, hereby incorporated by reference in its entirety and specifically in relation to ubiquitination assays. Briefly, HEK293T cells were transfected with Flag-CRBN, His-ubiquitin and HA-IKZF1 or GFP-BRD2 or GFP-BRD3. 24 hours after transfection, pomalidomide, opto-pomalidomide, dBET1 or opto-dBET1 were added to the cell culture together with 10 μM MG132 for 12 hours and cells were harvested in denatured buffer A (6 M guanidine-HCl, pH 8.0, 0.1 M Na2HPO4/NaH2PO4, 10 mM imidazole). After sonication, the ubiquitinated proteins were purified by incubation with Ni-NTA matrices for 3 hours at room temperature. The pull-down products were washed sequentially twice in buffer A, twice in buffer ANTI mixture (buffer A: buffer TI=1:3) and once in buffer TI (25 mM Tris-HCl, pH 6.8, 20 mM imidazole). The poly-ubiquitinated proteins were separated by SDS-PAGE for immunoblot analysis.
# BRD3/4 = BRD3/4 degradation, immunoblot of 293FT cells; type: cell-based, Human
# Description: as §1
# (§4) Cells were lysed in EBC lysis buffer (50 mM Tris pH 7.5, 120 mM NaCl, 0.5% NP-40), supplemented with protease inhibitors (cOmplete Mini, Roche) and phosphatase inhibitors (phosphatase inhibitor cocktail set I and II, Calbiochem). The protein concentrations of the lysates were measured using the Bio-Rad protein assay reagent on a Beckman Coulter DU-800 spectrophotometer. The lysates were then resolved by sodium dodecylsulfate-polyacrylamide gel ectrophoresis (SDS-PAGE) and immunoblotted with indicated antibodies. For immunoprecipitation, 1 mg lysates were incubated with the appropriate sepharose beads for 4 h at 4° C. Immuno-complexes were washed four times with NETN lysis buffer (20 mM Tris, pH 8.0, 100 mM NaCl, 1 mM EDTA and 0.5% NP-40) before being resolved by SDS-PAGE and immunoblotted with indicated antibodies.
# [1] = Uncaging (photolysis) by UVA irradiation in vitro, UV-VIS absorption / UPLC-MS analysis; type: physicochemical; conditions: 1 mM, UVA 365 nm, time course
# Description: HPLC spectra were acquired using an Agilent 1200 Series system with DAD detector for all the intermediates and Opto-PROTACs below. Chromatography was performed on a 2.1×150 mm Zorbax 300SB-C18 5 μm column with water containing 0.1% formic acid as solvent A and acetonitrile containing 0.1% formic acid as solvent B at a flow rate of 0.4 ml/min. The gradient program was as follows: 1% B (0-1 min), 1-99% B (1-4 min), and 99% B (4-8 min). High-resolution mass spectra (FIRMS) data were acquired in positive ion mode using an Agilent G1969A API-TOF with an electrospray ionization (ESI) source. Nuclear Magnetic Resonance (NMR) spectra were acquired on a Bruker DRX-600 spectrometer with 600 MHz for proton (^1H NMR) and 151 MHz for carbon (^13C NMR); chemical shifts are reported in (δ). Preparative HPLC was performed on Agilent Prep 1200 series with UV detector set to 254 nm. Samples were injected onto a Phenomenex Luna 250×30 mm, 5 μm, C18 column at room temperature. The flow rate was 40 ml/min. A linear gradient was used with 10% of acetonitrile (A) in H2O (with 0.1% TFA) (B) to 100% of acetonitrile (A). HPLC was used to establish the purity of target compounds. All final compounds had >95% purity using the HPLC methods described above.
# (§5) UV-Vis spectrometry was performed on a NanoDrop-2000 UV-Visible Spectrophotometer. Pomalidomide, opto-pomalidomide, dBET1, opto-dBET1, dALK and opto-dALK were dissolved in DMSO and diluted to indicated concentration, followed by UVA irradiation for indicated duration of time. Then the samples were subjected to UV-Vis spectrometry analysis. Pomalidomide and opto-pomalidomide mixture solutions were made with the indicated ratio. Absorption values at 364 nm were measured to draw standard curve. dBET1 and opto-dBET1 mixture solution were made with the indicated ratios. Absorption values at 340 nm were measured to draw standard curve. dALK and opto-dALK mixture solution were made with indicated ratio. Absorption values at 370 nm were measured to draw standard curve.
# NCI-H2228 cells = assay: CCK-8 cell viability assay, NCI-H2228 cells; type: cell-based
# Description: as §1, §2
# NCI-H3122 cells = assay: CCK-8 cell viability assay, NCI-H3122 cells; type: cell-based
# Description: as §1, §2
# IKZF1/3 = IKZF1/3 degradation, immunoblot of MM1S cells; type: cell-based; conditions: MM1S-CRBN+/+ vs. MM1S-CRBN−/− cells, 12 hours, without UVA irradiation; opto-drug up to 10-fold excess
# Description: (§6) MM.1S, MT2, C4-2, NCI-H2228 and NCI-H3122 cells were cultured in RPMI1640 containing 10% fetal bovine serum (FBS), 100 Units of penicillin and 100 μg/ml streptomycin. […] For UVA irradiation, cells were pretreated with opto-PROTACs for 2-4 hours, and then subjected to UVA irradiation for indicated durations.
# as §4
# [2] = UV-VIS absorption spectrum; type: physicochemical; conditions: in DMSO
# Description: as §5
# CRBN and IKZF1 = biological target: T1, CRBN and IKZF1 (Homo sapiens, UniProt Q13422+Q96SW2); assay: CRBN-IKZF1 interaction, Flag-IP and immunoblot in HEK293T cells; type: cell-based; conditions: without UVA irradiation, 10 μM MG132 12 hours
# T1 construct: expressed in transfected cells; host or cells: HEK293T
# Description: as §6, §4
# MM1S cells = assay: CCK-8 cell viability assay, MM1S cells; type: cell-based; conditions: MM1S-CRBN+/+ and MM1S-CRBN−/− cells, 72 hours, without UVA irradiation
# Description: as §1, §2
# IKZF1 = IKZF1 (Homo sapiens, UniProt Q13422+Q96SW2); assay: In vivo ubiquitination assay of IKZF1 by CRBN in HEK293T cells (Ni-NTA pull down); type: cell-based; design: expressed in transfected cells; host or cells: HEK293T; conditions: without UVA irradiation
# Description: as §3, with “Briefly,” for “Denatured in vivo ubiquitination assays were performed as described in H. Inuzuka et al., Cell 150 (2012): 179, hereby incorporated by reference in its entirety and specifically in relation to ubiquitination assays. Briefly,”
# [3] = HEK293FT (293FT-CRBN+/+ and CRBN−/−) cells, without UVA irradiation
# [4] = 293FT-CRBN+/+ vs. 293FT-CRBN−/− cells, 12 hours, without UVA irradiation
# [5] = 72 hours, without UVA irradiation
# [6] = UVA irradiation (365 nm) 15 minutes
# T1 sequence (Q96SW2 whole entry): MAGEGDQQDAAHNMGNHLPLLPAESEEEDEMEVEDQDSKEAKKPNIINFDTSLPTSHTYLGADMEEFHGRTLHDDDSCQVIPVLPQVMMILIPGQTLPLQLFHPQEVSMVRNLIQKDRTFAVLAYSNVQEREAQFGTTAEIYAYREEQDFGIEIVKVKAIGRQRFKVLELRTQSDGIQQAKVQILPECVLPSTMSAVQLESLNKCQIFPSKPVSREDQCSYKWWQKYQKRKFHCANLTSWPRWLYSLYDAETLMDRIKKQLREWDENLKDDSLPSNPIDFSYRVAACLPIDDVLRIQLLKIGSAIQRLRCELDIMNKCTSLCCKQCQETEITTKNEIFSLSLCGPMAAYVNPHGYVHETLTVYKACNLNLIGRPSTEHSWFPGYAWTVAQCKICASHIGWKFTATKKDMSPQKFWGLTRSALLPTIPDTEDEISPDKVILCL
# T1 sequence (Q13422 whole entry): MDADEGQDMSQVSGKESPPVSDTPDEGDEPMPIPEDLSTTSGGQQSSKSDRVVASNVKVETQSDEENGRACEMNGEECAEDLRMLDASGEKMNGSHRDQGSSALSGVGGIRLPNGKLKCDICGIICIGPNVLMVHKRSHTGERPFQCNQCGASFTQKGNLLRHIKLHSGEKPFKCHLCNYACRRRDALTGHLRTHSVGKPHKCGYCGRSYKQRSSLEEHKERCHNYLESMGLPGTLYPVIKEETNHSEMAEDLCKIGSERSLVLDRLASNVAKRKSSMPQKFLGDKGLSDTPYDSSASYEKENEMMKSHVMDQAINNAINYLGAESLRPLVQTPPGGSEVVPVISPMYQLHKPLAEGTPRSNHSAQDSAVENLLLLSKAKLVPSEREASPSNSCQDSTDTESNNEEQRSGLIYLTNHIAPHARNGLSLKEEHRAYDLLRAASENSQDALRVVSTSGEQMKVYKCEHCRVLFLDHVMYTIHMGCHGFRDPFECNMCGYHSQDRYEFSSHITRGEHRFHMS
# T1 sequence (Q16531 whole entry partner): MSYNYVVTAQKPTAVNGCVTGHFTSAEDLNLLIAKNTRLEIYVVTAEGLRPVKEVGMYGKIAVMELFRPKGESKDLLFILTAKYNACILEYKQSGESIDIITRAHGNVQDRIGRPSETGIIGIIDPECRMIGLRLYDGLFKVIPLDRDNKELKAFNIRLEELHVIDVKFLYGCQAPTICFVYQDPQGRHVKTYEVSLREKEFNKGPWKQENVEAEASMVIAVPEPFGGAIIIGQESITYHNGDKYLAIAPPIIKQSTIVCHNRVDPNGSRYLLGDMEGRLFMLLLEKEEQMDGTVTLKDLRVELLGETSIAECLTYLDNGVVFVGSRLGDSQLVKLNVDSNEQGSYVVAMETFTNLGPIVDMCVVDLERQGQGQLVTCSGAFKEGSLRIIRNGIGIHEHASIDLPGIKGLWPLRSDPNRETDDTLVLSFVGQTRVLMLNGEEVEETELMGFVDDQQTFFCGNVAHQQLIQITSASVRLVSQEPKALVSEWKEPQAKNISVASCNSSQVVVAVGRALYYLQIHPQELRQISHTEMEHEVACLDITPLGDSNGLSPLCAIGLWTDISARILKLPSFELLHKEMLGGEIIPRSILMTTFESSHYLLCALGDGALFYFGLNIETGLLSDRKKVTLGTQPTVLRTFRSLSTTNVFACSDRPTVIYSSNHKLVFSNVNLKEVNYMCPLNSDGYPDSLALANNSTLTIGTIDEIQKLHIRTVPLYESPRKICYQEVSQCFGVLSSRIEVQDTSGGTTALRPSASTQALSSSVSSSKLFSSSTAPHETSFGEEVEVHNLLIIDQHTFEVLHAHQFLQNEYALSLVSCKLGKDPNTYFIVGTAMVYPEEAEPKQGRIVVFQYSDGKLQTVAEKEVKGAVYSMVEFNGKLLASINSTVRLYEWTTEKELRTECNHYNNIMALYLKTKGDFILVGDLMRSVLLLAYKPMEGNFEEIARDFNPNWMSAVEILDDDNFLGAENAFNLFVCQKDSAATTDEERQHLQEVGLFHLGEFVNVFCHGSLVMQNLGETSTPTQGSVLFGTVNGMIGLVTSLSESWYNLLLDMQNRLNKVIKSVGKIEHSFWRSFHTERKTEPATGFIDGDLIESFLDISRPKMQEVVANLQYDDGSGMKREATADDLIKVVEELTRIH
# IKZF1, sequence (Q13422 whole entry): as the sequence (Q13422 whole entry) above
# IKZF1, sequence (Q96SW2 whole entry): as the sequence (Q96SW2 whole entry) above
# IKZF1, sequence (Q16531 whole entry partner): as the sequence (Q16531 whole entry partner) above
compound,measurement,setting,value
"Cc1sc2c(c1C)C(c1ccc(Cl)cc1)=N[C@@H](CC(=O)NCCCCNC(=O)COc1cccc3c1C(=O)N(C1CCC(=O)NC1=O)C3=O)c1nnc(C)n1-2 (some centres unmarked) [dBET1, reference compound]",cell proliferation (CCK-8),C4-2 cells; without UVA irradiation,inhibited cell proliferation in a dose-dependent manner
same,cell proliferation (CCK-8),HEK293FT cells; [3],inhibited cell proliferation in a dose-dependent manner; also recorded: inhibits cell proliferation in 293FT-CRBN^+/+ but not 293FT-CRBN^−/− cells
same,ubiquitination of BRD2 and BRD3 by CRBN,BRD2 and BRD3; without UVA irradiation,function as a molecular linker between a protein targeting moiety that recruits bromodomain family members (BRD2/3) (JQ1 derived) and CRBN-mediated ubiquitination
same,degradation of BRD3/4,BRD3/4; [4],degraded BRD 3/4 in a CRBN-dependent manner
COc1cc(COC(=O)N2C(=O)CCC(N3C(=O)c4cccc(NCCNC(=O)CN5CCC(c6cc(OC(C)C)c(Nc7ncc(Cl)c(Nc8ccccc8S(=O)(=O)C(C)C)n7)cc6C)CC5)c4C3=O)C2=O)c([N+](=O)[O-])cc1OC (centres unmarked) [opto-dALK],uncaging (photolysis) by UVA irradiation in vitro,[1],efficiently uncaged by UVA irradiation in vitro
same,cell proliferation (CCK-8),NCI-H2228 cells; [5],inefficient in inhibiting the proliferation of H2228 (C) or NCI-3122 (D)
same,cell proliferation (CCK-8),NCI-H2228 cells; [6],required prior uncaging by UVA irradiation; also recorded: inhibits H2228 (E) or NCI-3122 (F) cell proliferation in a dose-dependent manner
same,cell proliferation (CCK-8),NCI-H3122 cells; [5],inefficient in inhibiting the proliferation of H2228 (C) or NCI-3122 (D)
same,cell proliferation (CCK-8),NCI-H3122 cells; [6],required prior uncaging by UVA irradiation; also recorded: inhibits H2228 (E) or NCI-3122 (F) cell proliferation in a dose-dependent manner
COc1cc(COC(=O)N2C(=O)CCC(N3C(=O)c4cccc(OCC(=O)NCCCCNC(=O)C[C@@H]5N=C(c6ccc(Cl)cc6)c6c(sc(C)c6C)-n6c(C)nnc65)c4C3=O)C2=O)c([N+](=O)[O-])cc1OC (some centres unmarked) [opto-dBET1],cell proliferation (CCK-8),C4-2 cells; [6],could be activated by UVA irradiation to suppress cell proliferation; also recorded: inhibits HEK293FT (J) and C4-2 (K) cell proliferation in a dose-dependent manner
same,cell proliferation (CCK-8),C4-2 cells; without UVA irradiation,relatively less toxic
same,cell proliferation (CCK-8),HEK293FT cells; [3],relatively less toxic; also recorded: did not inhibit cell proliferation in 293FT-CRBN^+/+ and 293FT-CRBN^−/− cells
same,cell proliferation (CCK-8),"HEK293FT cells; HEK293FT cells, UVA irradiation (365 nm) 15 minutes",could be activated by UVA irradiation to suppress cell proliferation; also recorded: inhibits HEK293FT (J) and C4-2 (K) cell proliferation in a dose-dependent manner
same,ubiquitination of BRD2 and BRD3 by CRBN,BRD2 and BRD3; UVA irradiation (365 nm) 15 min,regained its ability to promote ubiquitination of BRDs in cells
same,ubiquitination of BRD2 and BRD3 by CRBN,BRD2 and BRD3; without UVA irradiation,incapable of guiding the ubiquitination of BRD2 and BRD3
same,uncaging (photolysis) by UVA irradiation in vitro,[1],efficiently uncaged by UVA irradiation in vitro
same,degradation of BRD3/4,BRD3/4; [4],largely inert and incapable of degrading BRD3/4
same,degradation of BRD3/4,"BRD3/4; HEK293FT cells, UVA irradiation (365 nm) 5 or 15 minutes",leading to the degradation of BRD3/4
"Nc1cccc2c1C(=O)N(C1CCC(=O)NC1=O)C2=O (centres unmarked) [pomalidomide, reference compound]",degradation of IKZF1/3,IKZF1/3,induced IKZF1/3 degradation in a CRBN-dependent manner
same,maximum in absorption of UV-VIS absorption spectrum,[2],390 nm
same,interaction between CRBN and IKZF1,CRBN and IKZF1,bound both CRBN and IKZF1/3
same,cell proliferation (CCK-8),MM1S cells,reduces MM1S cell proliferation in a CRBN-dependent manner
same,ubiquitination of IKZF1 by CRBN,IKZF1,"subsequently transfer the ubiquitin chain onto the target proteins, IKZFs"
